# Assay results reported in US9695155B2, “Herbicidal substituted pyrimidinyloxy benzene compounds” (E. I. DU PONT DE NEMOURS AND COMPANY, priority 2013, dated 2017).
# Assays:
# Assay in all cases: Test E preemergence
# [1] = tested on: giant foxtail; format: in vivo, Setaria faberii; conditions: for Foxtail, Giant plant response rating: scale 0 to 100 (0 no effect, 100 complete control)
# Source text: (§1) Seeds of plant species selected from corn (Zea mays), soybean (Glycine max), velvetleaf (Abutilon theophrasti), lambsquarters (Chenopodium album), wild poinsettia (Euphorbia heterophylla), palmer pigweed (Amaranthus palmeri), waterhemp (common waterhemp, Amaranthus rudis), surinam grass (Brachiaria decumbens), large (Lg) crabgrass (Digitaria sanguinalis), Brazilian crabgrass (Digitaria horizontalis), fall panicum (Panicum dichotomiflorum), giant foxtail (Setaria faberii), green foxtail (Setaria viridis), goosegrass (Eleusine indica), johnsongrass (Sorghum halepense), ragweed (common ragweed, Ambrosia elatior), barnyardgrass (Echinochloa crus-galli), sandbur (southern sandbur, Cenchrus echinatus), arrowleaf sida (Sida rhombifolia), Italian ryegrass (Lolium multiflorum), dayflower (Virginia (VA) dayflower, Commelina virginica), field bindweed (Convolvulus arvensis), morningglory (Ipomoea coccinea), nightshade (eastern black nightshade, Solanum ptycanthum), kochia (Kochia scoparia), yellow nutsedge (Cyperus esculentus), cocklebur (common cocklebur, Xanthium strumarium), smartweed (ladysthumb smartweed, and hairy beggarticks (Bidens pilosa), were planted into a silt loam soil and treated preemergence with test chemicals formulated in a non-phytotoxic solvent mixture which included a surfactant.
# (§2) At the same time, plants from these crop and weed species and also horseweed (Canada horseweed, Conyza canadensis), waterhemp_RES1, (ALS & Triazine resistant common waterhemp, Amaranthus rudis), and waterhemp_RES2, (ALS & HPPD resistant common waterhemp, Amaranthus rudis) were planted in pots containing Redi-Earth® planting medium (Scotts Company, 14111 Scottslawn Road, Marysville, Ohio 43041) comprising spaghnum peat moss, vermiculite, wetting agent and starter nutrients were treated with postemergence applications of test chemicals formulated in the same manner. Plants ranged in height from 2 to 18 cm for postemergence treatments (1- to 4-leaf stage). Treated plants and controls were maintained in a greenhouse for 14 to 21 days, after which time all species were compared to controls and visually evaluated. Plant response ratings, summarized in Table E, are based on a scale of 0 to 100 where 0 is no effect and 100 is complete control. A dash (-) response means no test result.
# [2] = tested on: yellow nutsedge; format: in vivo, Cyperus esculentus; conditions: for Nutsedge, Yellow plant response rating: scale 0 to 100 (0 no effect, 100 complete control)
# Source text: as §1, §2
# [3] = tested on: Brazilian crabgrass; format: in vivo, Digitaria horizontalis; conditions: for Crabgrass, Brazil plant response rating: scale 0 to 100 (0 no effect, 100 complete control)
# Source text: as §1, §2
# [4] = tested on: hairy beggarticks; format: in vivo, Bidens pilosa; conditions: for Beggarticks plant response rating: scale 0 to 100 (0 no effect, 100 complete control)
# Source text: as §1, §2
# [5] = tested on: waterhemp; format: in vivo, Amaranthus rudis; conditions: for Waterhemp plant response rating: scale 0 to 100 (0 no effect, 100 complete control)
# Source text: as §1, §2
# [6] = tested on: green foxtail; format: in vivo, Setaria viridis; conditions: for Foxtail, Green plant response rating: scale 0 to 100 (0 no effect, 100 complete control)
# Source text: as §1, §2
# [7] = tested on: wild poinsettia; format: in vivo, Euphorbia heterophylla; conditions: for Poinsettia, Wild plant response rating: scale 0 to 100 (0 no effect, 100 complete control)
# Source text: as §1, §2
# [8] = tested on: sandbur; format: in vivo, Cenchrus echinatus; conditions: for Sandbur plant response rating: scale 0 to 100 (0 no effect, 100 complete control)
# Source text: as §1, §2
# [9] = tested on: velvetleaf; format: in vivo, Abutilon theophrasti; conditions: for Velvetleaf plant response rating: scale 0 to 100 (0 no effect, 100 complete control)
# Source text: as §1, §2
# [10] = tested on: Italian ryegrass; format: in vivo, Lolium multiflorum; conditions: for Ryegrass, Italian plant response rating: scale 0 to 100 (0 no effect, 100 complete control)
# Source text: as §1, §2
# [11] = tested on: soybean; format: in vivo, Glycine max; conditions: for Soybean plant response rating: scale 0 to 100 (0 no effect, 100 complete control)
# Source text: as §1, §2
# [12] = 8 g ai/ha, scale 0 to 100, 0 is no effect, 100 is complete control
# [13] = 125 g ai/ha, scale 0 to 100, 0 no effect, 100 complete control
# [14] = preemergence, 125 g ai/ha, scale 0 to 100, 0 no effect, 100 complete control
# [15] = 250 g ai/ha, scale 0 to 100, 0 no effect, 100 complete control
compound,measurement,setting,value
FC(F)c1cccc(Oc2ncc(Cl)cn2)c1-n1cc(C(F)(F)F)cn1 [Compound 170],"Plant response rating, Foxtail, Giant",[1]; [12],0
same,"Foxtail, Giant plant response rating",[1]; 16 g ai/ha,0
same,"Foxtail, Giant plant response rating",[1]; 31 g ai/ha,25
same,"Foxtail, Giant plant response rating",[1]; 62 g ai/ha,100
same,"Plant response rating, Foxtail, Giant",[1]; [13],100
same,"Plant response rating, Nutsedge, Yellow",[2]; [12],0
same,"Nutsedge, Yellow plant response rating",[2]; 31 g ai/ha,20
same,"Nutsedge, Yellow plant response rating",[2]; 62 g ai/ha,30
same,"Plant response rating, Nutsedge, Yellow",[2]; [13],40
same,"Plant response rating, Crabgrass, Brazil",[3]; [12],30
same,"Crabgrass, Brazil plant response rating",[3]; 16 g ai/ha,40
same,"Crabgrass, Brazil plant response rating",[3]; 31 g ai/ha,100
same,"Crabgrass, Brazil plant response rating",[3]; 62 g ai/ha,100
same,"Plant response rating, Crabgrass, Brazil",[3]; [13],100
same,"Plant response rating, Beggarticks","[4]; 8 g ai/ha, preemergence, scale 0 to 100, 0 is no effect, 100 is complete control",0
same,Beggarticks plant response rating,"[4]; 16 g ai/ha, preemergence",0
same,Beggarticks plant response rating,"[4]; 31 g ai/ha, preemergence",0
same,Beggarticks plant response rating,"[4]; 62 g ai/ha, preemergence",0
same,"Plant response rating, Beggarticks",[4]; [14],0
same,"Plant response rating, Waterhemp",[5]; [12],0
same,Waterhemp plant response rating,[5]; 31 g ai/ha,80
same,Waterhemp plant response rating,[5]; 62 g ai/ha,90
same,"Plant response rating, Waterhemp",[5]; [13],80
same,"Plant response rating, Foxtail, Green",[6]; [12],0
same,"Foxtail, Green plant response rating",[6]; 16 g ai/ha,0
same,"Foxtail, Green plant response rating",[6]; 31 g ai/ha,40
same,"Foxtail, Green plant response rating",[6]; 62 g ai/ha,90
same,"Plant response rating, Foxtail, Green",[6]; [13],100
same,"Plant response rating, Poinsettia, Wild",[7]; [12],0
same,"Poinsettia, Wild plant response rating",[7]; 31 g ai/ha,20
same,"Poinsettia, Wild plant response rating",[7]; 62 g ai/ha,25
same,"Plant response rating, Poinsettia, Wild",[7]; [13],40
same,"Plant response rating, Sandbur",[8]; [12],0
same,Sandbur plant response rating,[8]; 31 g ai/ha,0
same,Sandbur plant response rating,[8]; 62 g ai/ha,30
same,"Plant response rating, Sandbur",[8]; [13],35
same,"Plant response rating, Velvetleaf",[9]; [12],0
same,Velvetleaf plant response rating,[9]; 31 g ai/ha,60
same,Velvetleaf plant response rating,[9]; 62 g ai/ha,65
same,"Plant response rating, Velvetleaf",[9]; [13],100
same,"Plant response rating, Ryegrass, Italian",[10]; [12],0
same,"Ryegrass, Italian plant response rating",[10]; 31 g ai/ha,20
same,"Ryegrass, Italian plant response rating",[10]; 62 g ai/ha,35
same,"Plant response rating, Ryegrass, Italian",[10]; [13],70
same,"Plant response rating, Soybean",[11]; [12],0
same,Soybean plant response rating,[11]; 31 g ai/ha,0
same,Soybean plant response rating,[11]; 62 g ai/ha,30
same,"Plant response rating, Soybean",[11]; [13],60
Cc1cnc(Oc2cccc(C#N)c2-n2cc(C#N)cn2)nc1 [Compound 90],"Foxtail, Giant plant response rating",[1]; 16 g ai/ha,0
same,"Foxtail, Giant plant response rating",[1]; 31 g ai/ha,0
same,"Foxtail, Giant plant response rating",[1]; 62 g ai/ha,15
same,"Plant response rating, Foxtail, Giant",[1]; [13],50
same,"Nutsedge, Yellow plant response rating",[2]; 16 g ai/ha,0
same,"Nutsedge, Yellow plant response rating",[2]; 31 g ai/ha,0
same,"Nutsedge, Yellow plant response rating",[2]; 62 g ai/ha,0
same,"Plant response rating, Nutsedge, Yellow",[2]; [13],0
same,"Crabgrass, Brazil plant response rating",[3]; 16 g ai/ha,0
same,"Crabgrass, Brazil plant response rating",[3]; 31 g ai/ha,20
same,"Crabgrass, Brazil plant response rating",[3]; 62 g ai/ha,50
same,"Plant response rating, Crabgrass, Brazil",[3]; [13],80
same,Beggarticks plant response rating,"[4]; 16 g ai/ha, preemergence",0
same,Beggarticks plant response rating,"[4]; 31 g ai/ha, preemergence",5
same,"Plant response rating, Beggarticks","[4]; Preemergence, 62 g ai/ha, scale 0 to 100, 0 no effect, 100 complete control",10
same,"Plant response rating, Beggarticks",[4]; [14],30
same,Waterhemp plant response rating,[5]; 16 g ai/ha,0
same,Waterhemp plant response rating,[5]; 31 g ai/ha,0
same,Waterhemp plant response rating,[5]; 62 g ai/ha,20
same,"Plant response rating, Waterhemp",[5]; [13],100
same,"Foxtail, Green plant response rating",[6]; 16 g ai/ha,0
same,"Foxtail, Green plant response rating",[6]; 31 g ai/ha,0
same,"Foxtail, Green plant response rating",[6]; 62 g ai/ha,10
same,"Plant response rating, Foxtail, Green",[6]; [13],50
same,"Poinsettia, Wild plant response rating",[7]; 16 g ai/ha,10
same,"Poinsettia, Wild plant response rating",[7]; 31 g ai/ha,35
same,"Poinsettia, Wild plant response rating",[7]; 62 g ai/ha,70
same,"Plant response rating, Poinsettia, Wild",[7]; [13],75
same,Sandbur plant response rating,[8]; 16 g ai/ha,0
same,Sandbur plant response rating,[8]; 31 g ai/ha,0
same,Sandbur plant response rating,[8]; 62 g ai/ha,0
same,"Plant response rating, Sandbur",[8]; [13],0
same,Velvetleaf plant response rating,[9]; 16 g ai/ha,0
same,Velvetleaf plant response rating,[9]; 31 g ai/ha,20
same,Velvetleaf plant response rating,[9]; 62 g ai/ha,60
same,"Plant response rating, Velvetleaf",[9]; [13],85
same,"Ryegrass, Italian plant response rating",[10]; 16 g ai/ha,0
same,"Ryegrass, Italian plant response rating",[10]; 31 g ai/ha,0
same,"Ryegrass, Italian plant response rating",[10]; 62 g ai/ha,0
same,"Plant response rating, Ryegrass, Italian",[10]; [13],0
same,Soybean plant response rating,[11]; 31 g ai/ha,15
same,Soybean plant response rating,[11]; 62 g ai/ha,30
same,"Plant response rating, Soybean",[11]; [13],35
Cc1cnc(Oc2cccc(C#N)c2-n2cc(C(F)(F)F)cn2)nc1 [Compound 180],"Foxtail, Giant plant response rating",[1]; 31 g ai/ha,75
same,"Foxtail, Giant plant response rating",[1]; 62 g ai/ha,100
same,"Plant response rating, Foxtail, Giant",[1]; [13],100
same,"Plant response rating, Foxtail, Giant",[1]; [15],100
same,"Nutsedge, Yellow plant response rating",[2]; 31 g ai/ha,0
same,"Nutsedge, Yellow plant response rating",[2]; 62 g ai/ha,30
same,"Plant response rating, Nutsedge, Yellow",[2]; [13],60
same,"Plant response rating, Nutsedge, Yellow",[2]; [15],75
same,"Crabgrass, Brazil plant response rating",[3]; 31 g ai/ha,90
same,"Crabgrass, Brazil plant response rating",[3]; 62 g ai/ha,100
same,"Plant response rating, Crabgrass, Brazil",[3]; [13],100
same,"Plant response rating, Crabgrass, Brazil",[3]; [15],100
same,Beggarticks plant response rating,"[4]; 31 g ai/ha, preemergence",10
same,Beggarticks plant response rating,"[4]; 62 g ai/ha, preemergence",20
same,"Plant response rating, Beggarticks",[4]; [14],40
same,"Plant response rating, Beggarticks","[4]; preemergence, 250 g ai/ha, scale 0 to 100, 0 no effect, 100 complete control",90
same,Waterhemp plant response rating,[5]; 31 g ai/ha,98
same,Waterhemp plant response rating,[5]; 62 g ai/ha,98
same,"Plant response rating, Waterhemp",[5]; [13],100
same,"Plant response rating, Waterhemp",[5]; [15],100
same,"Foxtail, Green plant response rating",[6]; 31 g ai/ha,65
same,"Foxtail, Green plant response rating",[6]; 62 g ai/ha,100
same,"Plant response rating, Foxtail, Green",[6]; [13],100
same,"Plant response rating, Foxtail, Green",[6]; [15],100
same,"Poinsettia, Wild plant response rating",[7]; 31 g ai/ha,10
same,"Poinsettia, Wild plant response rating",[7]; 62 g ai/ha,15
same,"Plant response rating, Poinsettia, Wild",[7]; [13],65
same,"Plant response rating, Poinsettia, Wild",[7]; [15],98
same,Sandbur plant response rating,[8]; 31 g ai/ha,0
same,Sandbur plant response rating,[8]; 62 g ai/ha,20
same,"Plant response rating, Sandbur",[8]; [13],75
same,"Plant response rating, Sandbur",[8]; [15],90
same,Velvetleaf plant response rating,[9]; 31 g ai/ha,35
same,Velvetleaf plant response rating,[9]; 62 g ai/ha,80
same,"Plant response rating, Velvetleaf",[9]; [13],100
same,"Plant response rating, Velvetleaf",[9]; [15],100
same,"Ryegrass, Italian plant response rating",[10]; 31 g ai/ha,0
same,"Ryegrass, Italian plant response rating",[10]; 62 g ai/ha,0
same,"Plant response rating, Ryegrass, Italian",[10]; [13],30
same,"Plant response rating, Ryegrass, Italian",[10]; [15],70
same,Soybean plant response rating,[11]; 31 g ai/ha,35
same,Soybean plant response rating,[11]; 62 g ai/ha,70
same,"Plant response rating, Soybean",[11]; [13],90
same,"Plant response rating, Soybean",[11]; [15],98
